What was measured:
Assay type in all cases: cell-based
[1] = tested on: articular cartilage; assay: Pig articular cartilage organ culture: incorporation of 3H-leucine into protein (index of cell viability); settings: 0IL1 + Miso. 200ng/ml; (SEM)
Method: (§1) A standard organ culture method was followed. Pieces of articular cartilage (4x1x1 mm) are cultured in DMEM and 5% fetal calf serum in an atmosphere of 5% CO₂ at 30°C. The culture medium was renewed every two days in an attempt to maintain the level of the compound undergoing evaluation. Integrity of the cartilage was determined by the retention of GAG using methylene blue dye technique, results were expressed as percentage remaining in the tissue at the end of the experiment. The synthetic activity of the chondrocytes was measured by the incorporation of^ 35SO₄ into GAG. In some of the evaluations incorporation of 3H-leucine into protein was measured as an index of cell viability.
(§2) Human recombinant IL1 alpha at a concentration of 1 ng/ml (nanograms/milliliter). At this concentration it was responsible for 68% loss in GAG content over the 8 day period whereas the control with either misoprostol vehicle or misoprostol at 200 ng/ml only lost between 4 and 7%. The cartilage was incubated in the presence of IL1 and misoprostol at 50, 100 and 200 ng/ml. […] At 100 ng/ml the GAG loss is reduced to 34 percent.

[2] = tested on: human articular cartilage; assay: Effect of misoprostol on IL1-induced inhibition of GAG synthesis (35SO4 incorporation after CPC precipitation); settings: for 35SO4 uptake into GAG: 4 days, (SEM)
Method: The effect of misoprostol on the action of IL1 on human articular cartilage. This experiment was undertaken to determine the action of misoprostol on IL1 action on cartilage. A total of 160 replicates were performed. The study investigated the inhibition of synthesis of GAG by human articular cartilage over the IL1 concentration range 0.01 - 1 ng/ml. Misoprostol was investigated in the range of 0.1 to 100 ng/ml.
Cartilage from a person was used in this experiment. The experimental period was kept to 4 days with the medium being changed every 24 hours. The tissue was pulsed at 4 days with 5 µCi/ml ³⁵SO₄ in the conventional manner and its incorporation in GAG measured after CPC precipitation.

[3] = tested on: IL1-treated cartilage; assay: Pig articular cartilage organ culture: retention of GAG (methylene blue dye technique)
Method: as §1, §2

[4] = tested on: IL1-treated cartilage; assay: Pig articular cartilage organ culture: incorporation of 35SO4 into GAG (synthetic activity of chondrocytes); settings: (SEM)
Method: as §1, §2

CCCCC(C)(O)C/C=C/[C@H]1[C@H](O)CC(=O)[C@@H]1CCCCCCC(=O)OC (mixture of isomers) [misoprostol, (+/-) methyl 11α,16-dihydroxy-16-methyl-9-oxoprost-13E-en-1-oate]
Uptake of 3H Leucine [1]: 70.9 (4.8) cpm/mg
protection against IL1-induced inhibition of GAG synthesis ([2]; 0.01 ng/ml IL1 (50% inhibition level), misoprostol at 10 ng/ml and at 100 ng/ml): significant protection
protection against the action of 0.01 ng/ml hrIL1α ([2]; 0.01 ng/ml hrIL1α, misoprostol 100 ng/ml): complete protection
protection against IL1-induced inhibition of GAG synthesis ([2]; 0.1 ng/ml IL1, misoprostol 100 ng/ml): modest protective activity
protection against IL1-induced inhibition of GAG synthesis ([2]; 0.1 ng/ml IL1, misoprostol below 100 ng/ml): ineffective
35SO4 uptake into GAG ([2]; IL1 conc. 0.01 ng/ml, Misoprostol 0.1 ng/ml): 3086 (306) cpm/mg
35SO4 uptake into GAG ([2]; IL1 conc. 0.01 ng/ml, Misoprostol 1.0 ng/ml): 2919 (244) cpm/mg
35SO4 uptake into GAG ([2]; IL1 conc. 0.1 ng/ml, Misoprostol 0.1 ng/ml): 1113 (119) cpm/mg
35SO4 uptake into GAG ([2]; IL1 conc. 0.1 ng/ml, Misoprostol 1.0 ng/ml): 1062 (71) cpm/mg
35SO4 uptake into GAG ([2]; IL1 conc. 0.1 ng/ml, Misoprostol 10.0 ng/ml): 1102 (165) cpm/mg
35SO4 uptake into GAG ([2]; IL1 conc. 1.0 ng/ml, Misoprostol 0.1 ng/ml): 183 (23) cpm/mg
35SO4 uptake into GAG ([2]; IL1 conc. 1.0 ng/ml, Misoprostol 1.0 ng/ml): 171 (14) cpm/mg
35SO4 uptake into GAG ([2]; IL1 conc. 1.0 ng/ml, Misoprostol 10.0 ng/ml): 219 (28) cpm/mg
35SO4 uptake into GAG ([2]; IL1 conc. 1.0 ng/ml, Misoprostol 100.0 ng/ml): 193 (26) cpm/mg
% Retention of GAG in tissue ([3]; 0IL1 + Miso. 200ng/ml, 8 day culture, (SEM)): 95.6 (1.9) %
GAG loss ([3]; IL1 1 ng/ml + misoprostol 100 ng/ml, 8 days): 34%
inhibition of the IL1 effect (GAG loss) ([3]; IL1 + misoprostol at 50, 100 and 200 ng/ml): highly significant inhibition
direct effect on intact cartilage ([3]; misoprostol without IL1): no direct affect
Uptake of 35 SO4 into GAG ([4]; 0IL1 + Miso. 200ng/ml): 29.6 (1.2) cpm/mg x 10^3
Uptake of 35 SO4 into GAG ([4]; IL1 + Miso. 200ng/ml): 6.3 (0.8) cpm/mg x 10^3
